Entries after “also recorded” stand apart in the source; their conditions may differ. Read-outs that look alike come from different tables or passages of the source.
Experiments:
[1] = subcutaneous injection; cited from earlier work
[2] = tested on: murine models of melanoma, renal cell carcinoma, and ovarian cancer; conditions: including decreased metastasis and increased overall survival; cited from earlier work
[3] = tested on: intra-tumoral CD8+ activated T-cells and FoxP3+ Tregs; experiment: Immunohistochemical analysis of intra-tumor T-cell infiltrates in a melanoma patient before and after X4P-001; assay type: in vivo, human
Description: Intra-tumoral tissue samples were obtained from a patient with melanoma prior to treatment (Day 1), and after three (3) weeks of treatment with CXCR4 inhibitor […]-001 (200 mg BID, oral) (Week 4). Samples were stained for CD8+, indicative of activated T-cells, and FoxP3+, indicative of immunosuppressive regulator T-cells (Tregs). The tables below indicate the total counts and density per square millimeter (mm^2) of CD8+ activated T-cells and FoxP3+ Tregs, as well as the ratio of CD8+ activated T-cells:FoxP3+ Tregs per mm^2 at day 1 and after 3 weeks of treatment.

[4] = Phase 1 and 2a trials, oral; cited from earlier work
[5] = Solubility of X4P-001 as a function of pH; assay type: physicochemical
in vivo = experiment: in vivo
Description: In certain embodiments, the dosage composition may be provided twice a day in divided dosage, approximately 12 hours apart. In other embodiments, the dosage composition may be provided once daily. […] Dosage for oral administration may be from about 100 mg to about 1200 mg once or twice per day.

[6] = tested on: tumor infiltrating lymphocytes and MDSC in MC38 tumors; experiment: Flow cytometry of Day 8 tumor samples, MC38 model (Groups 5-8); assay type: in vivo, mouse
From the text: On Day 8, tumor samples from Groups 5-8 are obtained and divided into three parts. The first part is process to single cells by flow cytometry; second part is preserved by snap freeze; and the third part is preserved as formalin-fixed, paraffin-embedded (FFPE) blocks for IHC analysis of biomarkers.
Samples subjected to flow cytometry are sorted into the following cell types:

[7] = tested on: advanced clear-cell renal cell carcinoma; conditions: nivolumab 3 mg/kg IV every two weeks or everolimus 10 mg orally daily; P<0.001; cited from earlier work

Compound: c1cc(CN2CCCNCCNCCCNCC2)ccc1CN1CCCNCCNCCCNCC1 [Plerixafor, reference compound]
- half-life [1]: very short half-life
- anti-tumor activity [2]: significant anti-tumor activity

Compound: NCCCCN(Cc1nc2ccccc2[nH]1)[C@H]1CCCc2cccnc21 [X4P-001]
- Total FoxP3+/mm^2 ([3]; Week 4, after 3 weeks of 200 mg BID oral, Day 1 before treatment 24.5868158): 25.2 /mm^2
- Total CD8+/mm^2 ([3]; Week 4, after 3 weeks of 200 mg BID oral, Day 1 before treatment 56.87565442): 121.4 /mm^2
- Total FoxP3+ ([3]; Week 4, after 3 weeks of 200 mg BID oral, Day 1 before treatment 313): 337
- Total CD8+ ([3]; Week 4, after 3 weeks of 200 mg BID oral, Day 1 before treatment 720): 1685
- intra-tumoral CD8+ T-cell counts ([3]; Week 4 versus Day 1, 200 mg BID oral, FIG. 3): marked increases in CD8+ T-cells; also recorded: marked increase
- pharmacodynamic activity: changes in circulating white blood cells (WBCs) [4]: dose- and concentration-related changes in circulating white blood cells
- volume of distribution (VL) [4]: high volume of distribution
- anti-tumor activity [2]: significant anti-tumor activity
- solubility ([5]; aqueous buffer, pH range 3.0 to 8.0 (freely soluble)): > 100 mg/mL
- Solubility in water ([5]; water): only slightly soluble
- terminal half-life (in vivo): approximately 14.5 hrs
- half-life (in vivo; terminal half-life): 12 to 24 h
- Treg, Percent of CD45^+ Population (Mean ± SEM) ([6]; control 0.5 ± 0.08): 0.49 ± 0.14%
- CD4^+, Percent of CD45^+ Population (Mean ± SEM) ([6]; control 1.21 ± 0.29): 1.3 ± 0.51%
- CD8^+, Percent of CD45^+ Population (Mean ± SEM) ([6]; control 3.91 ± 0.69): 6.11 ± 0.66%
- CD8^+/Treg ([6]; control 7.82): 12.47
- MDSC, Percent of CD45^+ Population (Mean ± SEM) ([6]; control 28.97 ± 3.6): 16.2 ± 0.67%
- effect on CD8^+ T cells ([6]; versus control): increasing CD8^+ T cells
- effect on MDSCs ([6]; versus control): significant effect on reducing MDSCs

Compound: CO[C@H]1C[C@@H]2CC[C@@H](C)[C@@](O)(O2)C(=O)C(=O)N2CCCC[C@H]2C(=O)O[C@H]([C@H](C)C[C@@H]2CC[C@@H](OCCO)[C@H](OC)C2)CC(=O)[C@H](C)/C=C(\C)[C@@H](O)[C@@H](OC)C(=O)[C@H](C)C[C@H](C)/C=C/C=C/C=C/1C [everolimus]
- objective response rate [7]: 5%

Compound: nivolumab: fully human IgG4 monoclonal antibody binding the PD-1 receptor
- objective response rate [7]: 25%
